{"source": "patent US20090239836A1", "about": "“Multifunctional Ophthalmic Compositions” (priority 2008, published 2009)", "experiment": "Solubility of compound having Formula V in various media", "type": "physicochemical", "description": "For example, the solubility of the compound having Formula V in some embodiments of the present composition is compared to that in water in Table 1.", "data": [{"smiles": "Cc1ccc2c(NCC(O)(CC(C)(C)c3cc(F)cc4c3OCC4)C(F)(F)F)cccc2n1", "note": "(centres unmarked) [Compound Having Formula V]", "values": [{"measurement": "solubility", "setting": "Medium: Water, pH 7", "value": 0.2, "unit": "µg/mL"}, {"measurement": "solubility", "setting": "aqueous with cosolvent or surfactant or cyclodextrin, Medium: 1% Polysorbate 80", "value": 12, "unit": "µg/mL"}, {"measurement": "solubility", "setting": "aqueous with cosolvent or surfactant or cyclodextrin, Medium: 10% PEG-400/1% polysorbate 80 (a composition of the present invention)", "value": 12, "unit": "µg/mL"}, {"measurement": "solubility", "setting": "aqueous with cosolvent or surfactant or cyclodextrin, Medium: 25% PEG-40/1% polysorbate 80 (a composition of the present invention)", "value": 18, "unit": "µg/mL"}, {"measurement": "solubility", "setting": "organic solvent or mixture, Medium: PEG-400", "value": 5.6, "unit": "µg/mL"}]}]}
